Laboratory results as given in article PMC4076210, “Discovery of Novel AKT Inhibitors with Enhanced Anti-Tumor Effects in Combination with the MEK Inhibitor” (PLoS ONE, 2014).
pIC50: −log10 of the molar value.

System: solid tumor cell lines
Test: 3-day proliferation assay (CellTiter-Glo)
Type: cell-based, human
Conditions: for pIC50: Homo sapiens
Outline: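 Growth inhibition was read by CellTiter-Glo after 3 days' exposure to 0–30 µM compound and expressed against DMSO controls. EC50 was derived by 4- or 6-parameter fitting. Cells were mostly grown in RPMI plus 10% FBS, some in vendor-specified media.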

Compound: Cn1ncc(Cl)c1-c1cc(C(=O)N[C@H](CN)Cc2cccc(F)c2)sc1Cl [GSK2110183]
- solid tumor cell lines with EC50<1 µM (178 cell lines, 3 days, CTG): 21%
- pIC50 (22Rv1, 22Rv1, Prostate): 6.15
- pIC50 (647-V, 647V, Bladder): 4.94
- pIC50 (786-0, 786-O, Kidney): 5.78
- pIC50 (A204, A204, Sarcoma): 5.67
- pIC50 (A549, A549, Lung): 5.48
- pIC50 (A673, A673, Sarcoma): 4.70
- pIC50 (A2780, A2780, Ovary): 5.40
- pIC50 (A-375, A375, Skin): 5.06
- pIC50 (A-427, A427, Lung): 4.72
- pIC50 (ACHN, Kidney): 5.43
- pIC50 (AGS, Stomach): 6.02
- pIC50 (BE(2)-C, BE2C, Neuroblastoma): 5.83
- pIC50 (BFTC-905, BFTC905, Bladder): 5.58
- pIC50 (BT-20, BT20, Breast): 6.51
- pIC50 (BXPC-3, BXPC3, Pancreas): < 4.52
- pIC50 (C3A, Liver): 5.76
- pIC50 (C32TG, Skin): 6.01
- pIC50 (C-33-A, C-33A, Cervix): 6.27
- pIC50 (C-41, Cervix): 4.82
- pIC50 (CAL-27, CAL27, Head & Neck): 5.10
- pIC50 (CAL-62, CAL62, Thyroid): 4.98
- pIC50 (CCF-STTG1, CCFSTTG1, Brain): 6.17
- pIC50 (CGTH-W-1, CGTHW1, Thyroid): 5.51
- pIC50 (CHL-1, CHL1, Skin): 5.42
- pIC50 (CHP-212, CHP212, Neuroblastoma): 5.63
- pIC50 (COLO 205, COLO205, Colon): 5.12
- pIC50 (COLO 320DM, COLO320DM, Colon): 5.87
- pIC50 (COLO 704, COLO704, Ovary): 6.47
- pIC50 (COR-L23, CORL23, Lung): 5.41
- pIC50 (Calu-3, CALU3, Lung): 5.48
- pIC50 (Calu-6, CALU6, Lung): 5.26
- pIC50 (Caov-3, CAOV3, Ovary): 5.21
- pIC50 (Capan-2, Capan2, Pancreas): 5.03
- pIC50 (DBTRG-05MG, DBTRG05MG, Brain): 5.35
- pIC50 (DKMG, Brain): 5.43
- pIC50 (DLD-1, DLD1, Colon): 5.07
- pIC50 (DU-145, DU145, Prostate): 5.18
- pIC50 (DU-4475, DU4475, Breast): 5.64
- pIC50 (DoTc2-4510, DoTc24510, Cervix): 5.65
- pIC50 (EFM-19, EFM19, Breast): 6.93
- pIC50 (EKVX, Lung): 5.26
- pIC50 (ES2, Ovary): 5.34
- pIC50 (FaDu, Head & Neck): 4.98
- pIC50 (G-401, G401, Head & Neck): 5.95
- pIC50 (GCT, Sarcoma): 5.23
- pIC50 (H4, Brain): 5.52
- pIC50 (HCC70, HCC70, Breast): 7.09
- pIC50 (HCC1954, HCC1954, Breast): 6.49
- pIC50 (HCC 2998, HCC2998, Colon): 5.66
- pIC50 (HCT-116, HCT116, Colon): 5.25
- pIC50 (HMCB, Skin): 5.35
- pIC50 (HN5, Head & Neck): 5.53
- pIC50 (HOS, Sarcoma): 5.61
- pIC50 (HPAF-II, HPAFII, Pancreas): 5.13
- pIC50 (HT3, Cervix): 5.57
- pIC50 (HT-29, HT29, Colon): 5.70
- pIC50 (HT-1080, HT1080, Sarcoma): 5.10
- pIC50 (HUVEC, Normal Endothelial): 5.52
- pIC50 (HeLa, Cervix): 5.20
- pIC50 (Hep3B, Liver): 6.40
- pIC50 (Hs746T, Stomach): 5.68
- pIC50 (IGROV-1, IGROV1, Ovary): 7.27
- pIC50 (J82, Bladder): 5.68
- pIC50 (KATO III, KATOIII, Stomach): 6.24
- pIC50 (KHOS-240S, KHOS240S, Sarcoma): 5.09
- pIC50 (KM12, KM12, Colon): 5.19
- pIC50 (KPL-1, KPL1, Breast): 5.42
- pIC50 (KYSE-30, KYSE30, Oesophagus): 5.46
- pIC50 (LNCaP, Prostate): 7.12
- pIC50 (LS174T, Colon): 5.46
- pIC50 (LS-1034, LS1034, Colon): 5.50
- pIC50 (M14, Skin): 5.31
- pIC50 (MC-IXC, MCIXC, Neuroblastoma): 5.98
- pIC50 (MCF7, MCF7, Breast): 6.33
- pIC50 (MCF-10A, MCF10A, Normal Breast): 6.19
- pIC50 (MDA-MB-175-VII, MDAMB175-VII, Breast): 6.72
- pIC50 (MDA-MB-231, MDAMB231, Breast): 4.88
- pIC50 (MDA-MB-453, MDAMB453, Breast): 5.93
- pIC50 (MDA-MB-468, MDAMB468, Breast): 6.00
- pIC50 (MES-SA, MESSA, Sarcoma): 6.18
- pIC50 (MIA PaCa-2, MiaPaCa, Pancreas): 5.77
- pIC50 (NCI-H69, NCIH69, Lung): 5.86
- pIC50 (NCI-H82, NCIH82, Lung): 4.53
- pIC50 (NCI-H146, NCIH146, Lung): 4.95
- pIC50 (NCI-H157, NCIH157, Lung): 5.69
- pIC50 (NCI-H187, NCIH187, Lung): 6.58
- pIC50 (NCI-H209, NCI-H209, Lung): 5.35
- pIC50 (NCI-H226, NCIH226, Lung): 5.21
- pIC50 (NCI-H292, NCIH292, Lung): 5.32
- pIC50 (NCI-H322, NCIH322, Lung): 5.03
- pIC50 (NCI-H358, NCI-H358, Lung): 5.72
- pIC50 (NCI-H446, NCIH446, Lung): 5.94
- pIC50 (NCI-H460, NCIH460, Lung): 5.43
- pIC50 (NCI-H508, NCIH508, Lung): 6.51
- pIC50 (NCI-H520, NCIH520, Lung): 6.03
- pIC50 (NCI-H630, NCIH630, Lung): 5.23
- pIC50 (NCI-H661, NCIH661, Lung): 5.26
- pIC50 (NCI-H716, NCIH716, Colon): 5.41
- pIC50 (NCI-H747, NCIH747, Lung): 5.69
- pIC50 (NCI-H1563, NCIH1563, Lung): 6.24
- pIC50 (NCI-H1792, NCIH1792, Lung): 5.33
- pIC50 (NCI-H2030, NCIH2030, Lung): 5.25
- pIC50 (NCI-H2052, NCIH2052, Lung): 5.32
- pIC50 (NCI-H2081, NCIH2081, Lung): 6.14
- pIC50 (NCI-H2122, NCIH2122, Lung): 5.53
- pIC50 (NCI-H2170, NCI-H2170, Lung): 5.81
- pIC50 (NCI-H2228, NCIH2228, Lung): 6.03
- pIC50 (NCI-N87, NCIN87, Stomach): 5.89
- pIC50 (NCI/ADR-RES, NCIADRRES, Breast): 4.91
- pIC50 (OE19, OE19, Oesophagus): 5.26
- pIC50 (OE21, OE21, Oesophagus): 6.59
- pIC50 (OE33, OE33, Oesophagus): 5.09
- pIC50 (OV-90, OV90, Ovary): 5.33
- pIC50 (OVCAR-3, OVCAR3, Ovary): 5.23
- pIC50 (OVCAR-4, OVCAR4, Ovary): 4.70
- pIC50 (OVCAR-5, OVCAR5, Ovary): 5.11
- pIC50 (PANC-1, Panc1, Pancreas): 5.35
- pIC50 (PC3, Prostate): 5.52
- pIC50 (PL45, PL45, Pancreas): 5.16
- pIC50 (Panc 02.03, Panc02.03, Pancreas): 4.84
- pIC50 (RD, Sarcoma): 4.95
- pIC50 (RD-ES, RDES, Sarcoma): 5.62
- pIC50 (RKO, Colon): 5.84
- pIC50 (SAOS-2, SAOS2, Sarcoma): 5.27
- pIC50 (SCC12, SCC12, Head & Neck): 5.41
- pIC50 (SCC-9, SCC9, Head & Neck): 5.18
- pIC50 (SCC-13, SCC-13, Head & Neck): 4.73
- pIC50 (SCC-15, SCC15, Head & Neck): 5.38
- pIC50 (SCC-25, SCC-25, Head & Neck): 5.33
- pIC50 (SCLC3, Lung): 6.66
- pIC50 (SF-295, SF295, Brain): 6.08
- pIC50 (SF-539, SF539, Brain): 6.05
- pIC50 (SH4, Skin): < 4.52
- pIC50 (SHP77, SHP77, Lung): 5.28
- pIC50 (SJRH30, SJRH30, Sarcoma): 6.04
- pIC50 (SK-BR-3, SKBR3, Breast): 6.43
- pIC50 (SK-LMS-1, SKLMS1, Sarcoma): 5.10
- pIC50 (SK-MEL-1, SKMEL1, Skin): 5.67
- pIC50 (SK-MEL-28, SKMEL28, Skin): 5.49
- pIC50 (SK-MES-1, SKMES-1, Lung): 5.34
- pIC50 (SK-N-AS, SKNAS, Neuroblastoma): 5.15
- pIC50 (SK-OV-3, SKOV3, Ovary): 5.96
- pIC50 (SK-UT-1, SKUT1, Sarcoma): 6.30
- pIC50 (SKNF1, Neuroblastoma): 6.05
- pIC50 (SN12C, Kidney): < 4.52
- pIC50 (SNB-75, SNB75, Brain): 5.83
- pIC50 (SNU1, SNU1, Stomach): 5.67
- pIC50 (SNU-5, SNU5, Stomach): 4.93
- pIC50 (SNU-16, SNU16, Stomach): 5.18
- pIC50 (SNU-398, SNU398, Liver): 4.56
- pIC50 (SNU-449, SNU449, Liver): 5.18
- pIC50 (SW48, SW48, Colon): 6.09
- pIC50 (SW480, SW480, Colon): < 4.52
- pIC50 (SW579, SW579, Thyroid): 5.74
- pIC50 (SW684, SW684, Sarcoma): 5.98
- pIC50 (SW756, SW756, Cervix): 4.98
- pIC50 (SW780, SW780, Bladder): 5.07
- pIC50 (SW872, SW872, Sarcoma): 6.04
- pIC50 (SW900, SW900, Lung): 4.81
- pIC50 (SW1088, SW1088, Brain): 6.02
- pIC50 (SW1417, SW1417, Colon): 5.40
- pIC50 (SW1783, SW1783, Brain): 6.23
- pIC50 (SW1990, SW1990, Pancreas): 4.88
- pIC50 (Skut1B, Sarcoma): 7.68
- pIC50 (T47D, T-47D, Breast): 6.48
- pIC50 (T84, Colon): 5.07
- pIC50 (TE 381.T, TE381T, Sarcoma): 5.79
- pIC50 (TK-10, TK10, Kidney): 5.32
- pIC50 (U20S, Sarcoma): < 4.52
- pIC50 (U138-MG, U138MG, Brain): 5.55
- pIC50 (U-87 MG, U87MG, Brain): 5.30
- pIC50 (U-251, U251, Brain): 5.61
- pIC50 (UACC-62, UACC62, Skin): 5.68
- pIC50 (UACC-257, UACC257, Skin): 5.28
- pIC50 (UMUC3, UMUC3, Bladder): 5.00
- pIC50 (YAPC, Pancreas): 5.08
- pIC50 (ZR-75-1, ZR75-1, Breast): 7.06
